Source: patent publication EP1198478B1, “SOMATOSTATIN ANALOGS AND THEIR USE FOR THE TREATMENT OF CANCER” (Dabur Research Foundation, priority 2000, dated 2002)
“And” between values parts separate entries of the source, which are not always exact repeats. Identical values can stand only once.

What was measured:
[1] = system: PTC (primary human colon cancer cell line); assay: MTT cytotoxicity assay, PTC cells; type: cell-based; settings: 48 hours
From the text: (§1) The cytotoxic effect of peptides SEQ ID NO: 2, SEQ ID NO: 3, SEQ ID NO: 6, and SEQ ID NO: 9, was studied by MTT assay which is based on the principle of uptake of MTT [3-[4,5-dimethylthiazol-2-yl]-2,5-diphenyl tetrazolium bromide], a tetrazolium salt by the metabolically active cells where it is metabolized by active mitochondria into a blue colored formazan product which can be read spectrophotometrically. Briefly, tumor cells PTC (primary human colon cancer cell line), KB (Oral squamous), U87MG (Glioblastoma), HBL100 (Breast), HeP2 (Laryngeal), ECV304 (Endothelial), PA-1 (Ovary) and L132 (Lung) were incubated with the peptide analogs for 48 hours at 37°C in a 96-well culture plate, followed by the addition of 100 µg MTT and further incubation of 1 hour. The formazan crystals formed inside the cells were dissolved with a detergent comprising 10% Sodium dodecyl sulfate and 0.01 N HCl and optical density read on a multiscan ELISA reader. The optical density was directly proportional to the number of proliferating and metabolically active cells.

[2] = system: KB (Oral squamous); assay: MTT cytotoxicity assay, KB cells; type: cell-based; settings: 48 hours
From the text: as §1

[3] = system: U87MG (Glioblastoma); assay: MTT cytotoxicity assay, U87MG cells; type: cell-based; settings: 48 hours
From the text: as §1

[4] = system: HBL100 (Breast); assay: MTT cytotoxicity assay, HBL100 cells; type: cell-based; settings: 48 hours
From the text: as §1

[5] = system: HeP2 (Laryngeal); assay: MTT cytotoxicity assay, HeP2 cells; type: cell-based; settings: 48 hours
From the text: as §1

[6] = system: L132 (Lung); assay: MTT cytotoxicity assay, L132 cells; type: cell-based; settings: 48 hours
From the text: as §1

[7] = system: PA-1 (Ovary); assay: MTT cytotoxicity assay, PA-1 cells; type: cell-based; settings: 48 hours
From the text: as §1

[8] = system: ECV304 (Endothelial); assay: MTT cytotoxicity assay, ECV304 cells; type: cell-based; settings: 48 hours
From the text: as §1

[9] = system: human colon adenocarcinoma (PTC) xenografts; assay: In vivo antitumor activity on primary tumor (colon) xenografted mice; set-up: species or system Balb/c athymic mice; settings: for tumor volumes, Avg: average of three animals; for tumor volumes of individual tumor bearing animals: individual animals (IV, V, VI for SEQ ID NO: 2; I, II, III for SEQ ID NO: 3); for percentage inhibition of tumor growth: as compared to controls, (1-tumor volume-treated/tumor volume control)* 100
Procedure: The antitumor activity of SEQ ID NO:2 and SEQ ID NO:3 was studied in human colon adenocarcinoma (PTC) xenografts in nude mice. PTC tumor xenografts were grown in Balb/c athymic mice by subcutaneous inoculation of a single cell suspension of PTC cells (15 X10^6 cells/ 100µl). The tumor bearing animals were divided into 3 groups of three animals each including one group comprising untreated control animals. Treatment with novel somatostatin analogs was initiated when the average tumor volumes, as measured using a vernier caliper, were between 400-800 mm^3. Solutions of SEQ ID NO:2 and SEQ ID NO:3 were prepared at a concentration of 85 µg/ml and intravenously administered to the assigned group of tumor bearing animals at a dose of 8.5 µg/100 µl twice a day so that the total dose of […] was administered to each animal. The treatment was continued for a period of 10 days.
The antitumor activity of the compounds was monitored by measuring tumor volumes every fourth day using the formula W*W*L*.04 (W = smaller diameter, L = larger diameter). The percentage inhibition of tumor growth was calculated using the formula (1-tumor volume-treated/tumor volume control)* 100.

[10] = day 9, intravenously 8.5 µg/100 µl twice a day, 10 days
[11] = day 13, intravenously 8.5 µg/100 µl twice a day, 10 days
[12] = day 18, intravenously 8.5 µg/100 µl twice a day, 10 days
[13] = day 21, intravenously 8.5 µg/100 µl twice a day, 10 days

## D-Phe-Cys-Tyr-D-Trp-Lys-Ac5c-Pen-Thr-NH2 [SEQ ID NO: 6]
[1]; 1nM
  Percentage cytotoxicity: 12±1.5%
[1]; 10 nM
  Percentage cytotoxicity: 11 ± 7.1%
[1]; 1µM
  Percentage cytotoxicity: 9 ± 2.1%
[1]; 100n M
  Percentage cytotoxicity: 8 ± 5.2%
[2]; 1nM
  Percentage cytotoxicity: 28.0 ± 1.2%
[2]; 10 nM
  Percentage cytotoxicity: 23.0 ± 4.8%
[2]; 1µM
  Percentage cytotoxicity: 12.9 ± 1.1%
[2]; 100n M
  Percentage cytotoxicity: 19.0 ± 5.2%
[3]; 1nM
  Percentage cytotoxicity: 39.0 ± 3.5%
[3]; 10 nM
  Percentage cytotoxicity: 40.4 ± 2.4%
[3]; 1µM
  Percentage cytotoxicity: 39.5 ± 1.2%
[3]; 100n M
  Percentage cytotoxicity: 42.9 ± 1.4%
[4]; 1nM
  Percentage cytotoxicity: 15.7 ± 4.5%
[4]; 10 nM
  Percentage cytotoxicity: 14.5 ± 2.8%
[4]; 1µM
  Percentage cytotoxicity: 8.0 ± 1.4%
[4]; 100n M
  Percentage cytotoxicity: 12.6 ± 3.2%
[5]; 1nM
  Percentage cytotoxicity: 8.0 ± 3.6%
[5]; 10 nM
  Percentage cytotoxicity: 14.8 ± 4.4%
[5]; 1µM
  Percentage cytotoxicity: 10.6 ± 2.4%
[5]; 100n M
  Percentage cytotoxicity: 11.0 ± 2.5%
[6]; 1nM
  Percentage cytotoxicity: 14.9 ± 1.2%
[6]; 10 nM
  Percentage cytotoxicity: 25.7 ± 4.8%
[6]; 1µM
  Percentage cytotoxicity: 13.7 ± 5.8%
[6]; 100n M
  Percentage cytotoxicity: 22.9 ± 2.6%
[7]; 1nM
  Percentage cytotoxicity: 19.4 ± 1.0%
[7]; 10 nM
  Percentage cytotoxicity: 25.9 ± 1.4%
[7]; 1µM
  Percentage cytotoxicity: 8.0 ± 3.3%
[7]; 100n M
  Percentage cytotoxicity: 22.6 ± 2.2%
[8]; 1nM
  Percentage cytotoxicity: 18.9 ± 3.9%
[8]; 10 nM
  Percentage cytotoxicity: 24.9 ± 3.8%
[8]; 1µM
  Percentage cytotoxicity: 7.9 ± 1.6%
[8]; 100n M
  Percentage cytotoxicity: 13.9 ± 2.9%

## D-Phe-Cys-Tyr-D-Trp-Orn-Ac5c-Pen-Thr-NH2 [SEQ ID NO: 3]
[1]; 1nM
  Percentage cytotoxicity: 15 ± 1.5%
[1]; 10 nM
  Percentage cytotoxicity: 11 ± 0.8%
[1]; 1µM
  Percentage cytotoxicity: 13 ± 2.3%
[1]; 100n M
  Percentage cytotoxicity: 13 ± 1.3%
[2]; 1nM
  Percentage cytotoxicity: 29.8 ± 1.2%
[2]; 10 nM
  Percentage cytotoxicity: 25.0 ± 4.6%
[2]; 1µM
  Percentage cytotoxicity: 17.9 ± 1.3%
[2]; 100n M
  Percentage cytotoxicity: 19.4 ± 5.2%
[3]; 1nM
  Percentage cytotoxicity: 44.2 ± 3.5%
[3]; 10 nM
  Percentage cytotoxicity: 45.0 ± 2.4%
[3]; 1µM
  Percentage cytotoxicity: 28.9 ± 1.2%
[3]; 100n M
  Percentage cytotoxicity: 42.4 ± 1.4%
[4]; 1nM
  Percentage cytotoxicity: 14.6 ± 4.5%
[4]; 10 nM
  Percentage cytotoxicity: 17.5 ± 2.8%
[4]; 1µM
  Percentage cytotoxicity: 10.6 ± 1.4%
[4]; 100n M
  Percentage cytotoxicity: 11.8±3.2%
[5]; 1nM
  Percentage cytotoxicity: 13.9 ± 3.6%
[5]; 10 nM
  Percentage cytotoxicity: 26.8 ± 4.4%
[5]; 1µM
  Percentage cytotoxicity: 10.0 ± 2.4%
[5]; 100n M
  Percentage cytotoxicity: 25.8 ± 2.5%
[6]; 1nM
  Percentage cytotoxicity: 19.0 ± 2.2%
[6]; 10 nM
  Percentage cytotoxicity: 28.6 ± 4.2%
[6]; 1µM
  Percentage cytotoxicity: 19.8 ± 5.5%
[6]; 100n M
  Percentage cytotoxicity: 25.9 ± 2.6%
[7]; 1nM
  Percentage cytotoxicity: 29.5 ± 1.0%
[7]; 10 nM
  Percentage cytotoxicity: 39.5 ± 3.4%
[7]; 1µM
  Percentage cytotoxicity: 19.5 ± 3.3%
[7]; 100n M
  Percentage cytotoxicity: 38.5 ± 2.2%
[8]; 1nM
  Percentage cytotoxicity: 13.9 ± 3.9%
[8]; 10 nM
  Percentage cytotoxicity: 23.9 ± 1.3%
[8]; 1µM
  Percentage cytotoxicity: 14.9 ± 1.6%
[8]; 100n M
  Percentage cytotoxicity: 15.9 ± 2.9%
[9]; day 0, before treatment
  tumor volumes, Avg: 0 mm^3
  tumor volumes of individual tumor bearing animals: 0 mm^3
[9]; [10]
  tumor volumes, Avg: 552 mm^3
  tumor volumes of individual tumor bearing animals: 560 mm^3 and 774 mm^3 and 324 mm^3
[9]; [11]
  tumor volumes, Avg: 1758 mm^3
  tumor volumes of individual tumor bearing animals: 1946 mm^3 and 1800 mm^3 and 1530 mm^3
[9]; [12]
  tumor volumes, Avg: 3674 mm^3
  tumor volumes of individual tumor bearing animals: 3177 mm^3 and 3610 mm^3 and 4234 mm^3
[9]; [13]
  percentage inhibition of tumor growth: 54.7%
  tumor volumes, Avg: 4080 mm^3
  tumor volumes of individual tumor bearing animals: 0 mm^3 and 4939 mm^3 and 7301 mm^3

## D-Phe-Cys-Tyr-D-Trp-Orn-Aib-Pen-Thr-NH2 [SEQ ID NO: 9]
[2]; 1nM
  Percentage cytotoxicity: 28.0 ± 1.6%
[2]; 10 nM
  Percentage cytotoxicity: 27.0 ± 4.8%
[2]; 1µM
  Percentage cytotoxicity: 12.0 ± 1.2%
[2]; 100n M
  Percentage cytotoxicity: 18.0 ± 5.2%
[3]; 1nM
  Percentage cytotoxicity: 13.9 ± 2.5%
[3]; 10 nM
  Percentage cytotoxicity: 29.7 ± 2.4%
[3]; 1µM
  Percentage cytotoxicity: 42.9 ± 1.2%
[3]; 100n M
  Percentage cytotoxicity: 53.3 ± 1.4%
[4]; 1nM
  Percentage cytotoxicity: 26.9 ± 2.6%
[4]; 10 nM
  Percentage cytotoxicity: 23.9 ± 4.4%
[4]; 1µM
  Percentage cytotoxicity: 7.9 ± 1.2%
[4]; 100n M
  Percentage cytotoxicity: 14.9 ± 2.2%
[5]; 1nM
  Percentage cytotoxicity: 15.6 ± 3.6%
[5]; 10 nM
  Percentage cytotoxicity: 21.4 ± 4.4%
[5]; 1µM
  Percentage cytotoxicity: 19.9 ± 2.4%
[5]; 100n M
  Percentage cytotoxicity: 27.9 ± 2.5%
[6]; 1nM
  Percentage cytotoxicity: 14.9 ± 2.6%
[6]; 10 nM
  Percentage cytotoxicity: 26.1 ± 4.8%
[6]; 1µM
  Percentage cytotoxicity: 12.9 ± 1.8%
[6]; 100n M
  Percentage cytotoxicity: 22.8 ± 2.6%
[7]; 1nM
  Percentage cytotoxicity: 4.6 ± 1.0%
[7]; 10 nM
  Percentage cytotoxicity: 12.8 ± 1.4%
[7]; 1µM
  Percentage cytotoxicity: 16.6 ± 3.1%
[7]; 100n M
  Percentage cytotoxicity: 22.7 ± 2.2%
[8]; 1nM
  Percentage cytotoxicity: 18.0 ± 2.9%
[8]; 10 nM
  Percentage cytotoxicity: 23.9 ± 3.1%
[8]; 1µM
  Percentage cytotoxicity: 12.9 ± 1.6%
[8]; 100n M
  Percentage cytotoxicity: 19.9 ± 2.6%

## D-Phe-Cys-Tyr-D-Trp-Orn-Deg-Pen-Thr-NH2 [SEQ ID NO: 2]
[1]; 1nM
  Percentage cytotoxicity: 40 ± 0.5%
[1]; 10 nM
  Percentage cytotoxicity: 14 ± 2.9%
[1]; 1µM
  Percentage cytotoxicity: 9.0 ± 3.2%
[1]; 100n M
  Percentage cytotoxicity: 20 ± 1.5%
[2]; 1nM
  Percentage cytotoxicity: 28.0 ± 3.2%
[2]; 10 nM
  Percentage cytotoxicity: 34.9 ± 4.6%
[2]; 1µM
  Percentage cytotoxicity: 12.0 ± 4.3%
[2]; 100n M
  Percentage cytotoxicity: 19.0 ± 5.2%
[3]; 1nM
  Percentage cytotoxicity: 22.8 ± 3.5%
[3]; 10 nM
  Percentage cytotoxicity: 41.9 ± 2.4%
[3]; 1µM
  Percentage cytotoxicity: 33.9 ± 1.2%
[3]; 100n M
  Percentage cytotoxicity: 39.5 ± 1.4%
[4]; 1nM
  Percentage cytotoxicity: 19.4 ± 4.5%
[4]; 10 nM
  Percentage cytotoxicity: 22.8 ± 1.8%
[4]; 1µM
  Percentage cytotoxicity: 10.6 ± 1.4%
[4]; 100n M
  Percentage cytotoxicity: 15.7 ± 3.5%
[5]; 1nM
  Percentage cytotoxicity: 14.9 ± 3.2%
[5]; 10 nM
  Percentage cytotoxicity: 29.7 ± 4.4%
[5]; 1µM
  Percentage cytotoxicity: 10.0 ± 2.4%
[5]; 100n M
  Percentage cytotoxicity: 13.0 ± 3.5%
[6]; 1nM
  Percentage cytotoxicity: 12.7 ± 2.9%
[6]; 10 nM
  Percentage cytotoxicity: 23.4 ± 4.2%
[6]; 1µM
  Percentage cytotoxicity: 17.7 ± 5.5%
[6]; 100n M
  Percentage cytotoxicity: 22.8 ± 4.6%
[7]; 1nM
  Percentage cytotoxicity: 29.5 ± 24%
[7]; 10 nM
  Percentage cytotoxicity: 27.9 ± 3.4%
[7]; 1µM
  Percentage cytotoxicity: 12.8 ± 3.3%
[7]; 100n M
  Percentage cytotoxicity: 22.9 ± 2.3%
[8]; 1nM
  Percentage cytotoxicity: 22.8 ± 3.9%
[8]; 10 nM
  Percentage cytotoxicity: 19.8 ± 3.3%
[8]; 1µM
  Percentage cytotoxicity: 6.0 ± 2.9%
[8]; 100n M
  Percentage cytotoxicity: 14.9 ± 2.9%
[9]; day 0, before treatment
  tumor volumes, Avg: 0 mm^3
  tumor volumes of individual tumor bearing animals: 0 mm^3
[9]; [10]
  tumor volumes, Avg: 654 mm^3
  tumor volumes of individual tumor bearing animals: 480 mm^3 and 678 mm^3 and 806 mm^3
[9]; [11]
  tumor volumes, Avg: 1927 mm^3
  tumor volumes of individual tumor bearing animals: 1254 mm^3 and 2196 mm^3 and 2333 mm^3
[9]; [12]
  tumor volumes, Avg: 3886 mm^3
  tumor volumes of individual tumor bearing animals: 1965 mm^3 and 5240 mm^3 and 4453 mm^3
[9]; [13]
  percentage inhibition of tumor growth: 57.1%
  tumor volumes, Avg: 3860 mm^3
  tumor volumes of individual tumor bearing animals: 491 mm^3 and 4839 mm^3 and 6250 mm^3
